Paper PMC8050083, “Naturally-occurring spinosyn A and its derivatives function as argininosuccinate synthase activator and tumor inhibitor” (Nature Communications, 2021)
Where two headings read alike, the source gives them in different places.

Assays:
[1] = target: T1, Argininosuccinate synthase (ASS1) (Homo sapiens, UniProt P00966); test: covalent labelling kinetics by streptavidin-HRP blot (kinact […] min^-1); pull-down from MCF-7 lysate; format: binding; settings: read-out: Ki
T1 construct: recombinant human ASS1, N-terminal 6×His tag (pET28a), NM_000050
T1 sequence (P00966 1-412): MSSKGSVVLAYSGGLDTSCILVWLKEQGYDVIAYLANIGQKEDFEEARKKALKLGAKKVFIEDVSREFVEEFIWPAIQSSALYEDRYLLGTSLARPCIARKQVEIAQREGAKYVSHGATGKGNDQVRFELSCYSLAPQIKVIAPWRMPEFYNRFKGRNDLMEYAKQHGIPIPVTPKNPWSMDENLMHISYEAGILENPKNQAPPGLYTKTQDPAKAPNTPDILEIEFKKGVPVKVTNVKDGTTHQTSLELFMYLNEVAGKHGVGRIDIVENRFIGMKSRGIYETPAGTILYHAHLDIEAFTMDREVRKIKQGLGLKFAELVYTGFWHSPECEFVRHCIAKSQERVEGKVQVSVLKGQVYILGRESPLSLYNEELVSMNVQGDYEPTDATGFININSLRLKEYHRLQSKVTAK

[2] = target: T1, Argininosuccinate synthase (ASS1); test: SPR (BIAcore X100); also LC-MS/MS of Cys97 adduct, competition with Biotin-SPA, enzyme activation (AC50 […]); format: binding
[3] = target: T1, Argininosuccinate synthase (ASS1); test: as above; format: binding; remark: listed apart in the source
BT20 = test: cells; design: crystal violet staining viability/proliferation assay, IC50 (SPSS), LM-2I on breast cancer and normal breast epithelial lines; settings: Homo sapiens, BT-20; mean of 3 repeats
Protocol: (§1) Fig. 1 SPA and its derivative LM-2I inhibit breast cancer proliferation and growth. a Chemical structures of SPA (1). b Crystal violet assay for the effects of SPA on breast cancer cell proliferation. IC50 values were calculated with SPSS 18.0 (mean ± s.d., n = 3 biologically independent experiments). c Representative microscope images of colony formation for different breast cancer cell lines treated with SPA. Scale bars are […]. d Chemical structures of LM-2I (2). e Crystal violet assay for the effects of LM-2I on breast cancer cell proliferation. IC50 values were calculated with SPSS 18.0 (mean ± s.d., n = 3 biologically independent experiments). f Representative microscope images of colony formation for different breast cancer cell lines treated with LM-2I. Scale bars are […]. MDA-MB-231 cells were inoculated subcutaneously into the right flank of nu/nu female mice. When the average tumor size reached about 100 mm^3, mice were treated with ether vehicle, SPA (10 mg/kg/day) or LM-2I (5 mg/kg/day). Tumor sizes (g) and mouse body weight (i) were measured every 2 days. 28 days later, mice were sacrificed and tumors were dissected and weighted (h). Data represent mean ± s.d. (n = 8 mice per group). *P < 0.05, ***P < 0.001, NS: not significant (P > 0.05) from two-tailed unpaired Student’s t tests.Source data are provided as a Source Data file. All cell lines were purchased from American Type Culture Collection (ATCC, Manassas, VA, USA). The human breast cancer (BC) cell lines BT549, BT474 and T47D were maintained in RPMI 1640 containing 10% (v/v) fetal bovine serum (FBS, Gibco), 0.01 mg/mL insulin and 100 units/mL penicillin/streptomycin (HyClone). SKBR3, Hs578T, and BT20 human BC cell lines were cultured in DMEM medium with 10% (v/v) FBS and 100 units/mL penicillin/streptomycin. HCC1500, HCC1806, and HCC1937 human BC cell lines were cultured in RPMI 1640 medium supplement with 10% (v/v) FBS and 100 units/mL penicillin/streptomycin. MDA-MB-231 human BC cell line was cultured in DMEM/F12 (1: 1) medium with 10% (v/v) FBS and 100 units/mL penicillin/streptomycin. MDA-MB-468 human BC cell line was cultured in DMEM (high glucose) medium with 10% (v/v) FBS and 100 units/mL penicillin/streptomycin. MCF-7 human BC cell line was cultured in EMEM medium with 10% (v/v) FBS, 0.01 mg/mL insulin and 100 units/mL penicillin/streptomycin. […] All of the cells cultured in a humidified incubator at 37 °C and 5% CO2/95% air (v/v).

BT474 = test: cells; design: crystal violet staining viability/proliferation assay, IC50 (SPSS), LM-2I on breast cancer and normal breast epithelial lines; settings: Homo sapiens, BT-474; mean of 3 repeats
Protocol: as §1

BT549 = test: cells; design: crystal violet staining viability/proliferation assay, IC50 (SPSS), LM-2I on breast cancer and normal breast epithelial lines; settings: Homo sapiens, BT-549; mean of 3 repeats
Protocol: as §1

HCC1500 = test: cells; design: crystal violet staining viability/proliferation assay, IC50 (SPSS), LM-2I on breast cancer and normal breast epithelial lines; settings: HCC1500; mean of 3 repeats
Protocol: as §1

HCC1806 = test: cells; design: crystal violet staining viability/proliferation assay, IC50 (SPSS), LM-2I on breast cancer and normal breast epithelial lines; settings: Homo sapiens, HCC1806; mean of 3 repeats
Protocol: as §1

HCC1937 = test: cells; design: crystal violet staining viability/proliferation assay, IC50 (SPSS), LM-2I on breast cancer and normal breast epithelial lines; settings: Homo sapiens, HCC1937; mean of 3 repeats
Protocol: as §1

HS578T = test: cells; design: crystal violet staining viability/proliferation assay, IC50 (SPSS), LM-2I on breast cancer and normal breast epithelial lines; settings: Homo sapiens, Hs-578T; mean of 3 repeats
Protocol: as §1

MCF-7 = test: cells; design: crystal violet staining viability/proliferation assay, IC50 (SPSS), LM-2I on breast cancer and normal breast epithelial lines; settings: Homo sapiens, MCF7; mean of 3 repeats
Protocol: as §1

MDA-MB-231 = test: cells; design: crystal violet staining viability/proliferation assay, IC50 (SPSS), LM-2I on breast cancer and normal breast epithelial lines; settings: Homo sapiens, MDA-MB-231; mean of 3 repeats
Protocol: as §1

MDA-MB-468 = test: cells; design: crystal violet staining viability/proliferation assay, IC50 (SPSS), LM-2I on breast cancer and normal breast epithelial lines; settings: Homo sapiens, MDA-MB-468; mean of 3 repeats
Protocol: as §1

SKBR3 = test: cells; design: crystal violet staining viability/proliferation assay, IC50 (SPSS), LM-2I on breast cancer and normal breast epithelial lines; settings: Homo sapiens, SK-BR-3; mean of 3 repeats
Protocol: as §1

T47D = test: cells; design: crystal violet staining viability/proliferation assay, IC50 (SPSS), LM-2I on breast cancer and normal breast epithelial lines; settings: Homo sapiens, T47D; mean of 3 repeats
Protocol: as §1

in vitro = test: in vitro; design: crystal violet staining viability/proliferation assay, IC50 (SPSS), LM-2I on breast cancer and normal breast epithelial lines; settings: human, Mean; mean of 3 repeats; given as IC50
Protocol: (§2) Fig. 1 SPA and its derivative LM-2I inhibit breast cancer proliferation and growth. a Chemical structures of SPA (1). b Crystal violet assay for the effects of SPA on breast cancer cell proliferation. IC50 values were calculated with SPSS 18.0 (mean ± s.d., n = 3 biologically independent experiments). c Representative microscope images of colony formation for different breast cancer cell lines treated with SPA. Scale bars are 40 µM. d Chemical structures of LM-2I (2). e Crystal violet assay for the effects of LM-2I on breast cancer cell proliferation. IC50 values were calculated with SPSS 18.0 (mean ± s.d., n = 3 biologically independent experiments). f Representative microscope images of colony formation for different breast cancer cell lines treated with LM-2I. Scale bars are 40 µM. MDA-MB-231 cells were inoculated subcutaneously into the right flank of nu/nu female mice. When the average tumor size reached about 100 mm^3, mice were treated with ether vehicle, SPA (10 mg/kg/day) or LM-2I (5 mg/kg/day). Tumor sizes (g) and mouse body weight (i) were measured every 2 days. 28 days later, mice were sacrificed and tumors were dissected and weighted (h). Data represent mean ± s.d. (n = 8 mice per group). *P < 0.05, ***P < 0.001, NS: not significant (P > 0.05) from two-tailed unpaired Student’s t tests.Source data are provided as a Source Data file. […]

184B5 = test: in vitro; design: crystal violet staining viability/proliferation assay, IC50 (SPSS), LM-2I on breast cancer and normal breast epithelial lines; settings: mean of 3 repeats; given as IC50; inhibitor
Protocol: as §2

Compound `CC[C@H]1CCC[C@H](O[C@H]2CC[C@H](N(C)CCCCCCOC(=O)CCCC[C@@H]3SC[C@@H]4NC(=O)N[C@@H]43)[C@@H](C)O2)[C@@H](C)C(=O)C2=C[C@@H]3[C@@H](C=C[C@@H]4C[C@@H](O[C@@H]5O[C@@H](C)[C@H](OC)[C@@H](OC)[C@H]5OC)C[C@@H]34)[C@@H]2CC(=O)O1` [compound 4, Biotin-SPA] has a KI (inactivation) [1] of 9.01 µM.

Compound `CC[C@H]1CCC[C@H](O[C@H]2CC[C@H](N(C)C)[C@@H](C)O2)[C@@H](C)C(=O)C2=C[C@@H]3[C@@H](C=C[C@@H]4C[C@@H](O[C@@H]5O[C@@H](C)[C@H](OC)[C@@H](OC)[C@H]5OC)C[C@@H]34)[C@@H]2CC(=O)O1` [compound 1, spinosyn A] has a Kd [2] of 0.358 µM.

`CC[C@H]1CCC[C@H](O[C@H]2CC[C@H](N(C)CC(O)CN3CCNCC3)[C@@H](C)O2)[C@@H](C)C(=O)C2=C[C@@H]3[C@@H](C=C[C@@H]4C[C@@H](O[C@@H]5O[C@@H](C)[C@H](OC)[C@@H](OC)[C@H]5OC)C[C@@H]34)[C@@H]2CC(=O)O1` (some centres unmarked) [compound 2, LM-2I] showed a Kd [3] of 0.194 µM, an IC50 (BT20) of 8.22 µM and an IC50 (BT474) of 6.2 µM. It also gave an IC50 (BT549) of 1.51 µM, an IC50 (HCC1500) of 10 µM and an IC50 (HCC1806) of 2.13 µM. It also gave an IC50 (HCC1937) of 7.64 µM, an IC50 (HS578T) of 1.76 µM and an IC50 (MCF-7) of 5.94 µM. It also gave an IC50 (MDA-MB-231) of 1.09 µM, an IC50 (MDA-MB-468) of 5.11 µM and an IC50 (SKBR3) of 5.12 µM. The IC50 (T47D) was 5.95 µM, the CC50 (in vitro) was 8.52 µM and the CC50 (184B5) was 7.89 µM.
